≈ marks a conversion by molar mass, not a printed value. Counter-ions that a name gives are not always drawn. Each block holds one compound with its values, some of them ahead of it. Starred links: 1 amine or outer side, 2 acyl side, 3 side chain; linkers in the order of their positions; H or OH if unused. Non-standard residues stand in square brackets, D forms with d. Residues, ends and D or L forms follow the SMILES beside them. *: point of attachment. X1 = C[C@@H](N[*:1])P(=O)(O)CCC(=O)[*:2]; Cbz = O=C(OCc1ccccc1)*; CH2Cl = ClC*
Assays:
Staphylococcus aureus [1] = assay: Antibacterial activity against Staphylococcus aureus ATCC 6538p assessed as inhibition of bacterial growth incubated overnight by spectrophotometer; format: functional
Sortase A [2] = molecular target: T1, Sortase A (Staphylococcus aureus, UniProt Q9S446); assay: Inhibition of recombinant Staphylococcus aureus ATCC 6538p SrtA expressed in Escherichia coli TOP10 using Dabcyl-QALPETGEE-Edans as substrate incubated for 1 hr by fluorometric analysis
T1 sequence (Q9S446 whole entry): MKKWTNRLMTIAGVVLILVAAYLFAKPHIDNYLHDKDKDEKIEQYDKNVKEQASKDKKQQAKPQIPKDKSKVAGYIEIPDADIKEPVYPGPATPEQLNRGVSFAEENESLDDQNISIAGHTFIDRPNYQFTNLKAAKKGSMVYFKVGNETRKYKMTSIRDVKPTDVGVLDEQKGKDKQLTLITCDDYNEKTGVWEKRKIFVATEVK

Staphylococcus aureus [3] = assay: Inhibition of biofilm formation in Staphylococcus aureus ATCC 29213 incubated for 24 hrs by crystal violet staining based analysis; format: functional, organism-based; conditions: ATCC 29213, 24 h
Sortase A [4] = molecular target: T1, Sortase A; assay: Inhibition of C-terminal 6His-tagged recombinant Staphylococcus aureus SrtA with 1 to 59 residues truncated from N-terminus expressed in Escherichia coli BL21 (DE3) using dabcyl-QALPETGEE-edans as substrate preincubated for 1 hr followed by substrate addition and measured for 1 hr by FRET assay
Staphylococcus aureus [5] = assay: Antibacterial activity against Staphylococcus aureus; format: functional
[6] = molecular target: T2, Sortase A (Staphylococcus aureus) (UniProt Q9S446); assay: Binding affinity to Staphylococcus aureus SrtA assessed as kinact/ki
T2 sequence (whole entry): T1 sequence (Q9S446 whole entry)

Sortase A [7] = molecular target: T1, Sortase A; assay: Inhibition of Staphylococcus aureus SrtA
Sortase A [8] = molecular target: T1, Sortase A; assay: Inhibition of recombinant Staphylococcus aureus SrtA using Abz-LPETG-Dap(Dnp) as substrate
Staphylococcus aureus [9] = assay: Antibacterial activity against Staphylococcus aureus SA113 by microbroth dilution assay; format: functional
Sortase A [10] = molecular target: T1, Sortase A; assay: Inhibition of Staphylococcus aureus SrtA catalytic domain (60 to 206 residues) using Abz-LPETGDap(Dnp)-NH2 as substrate preincubated for 1 hr followed by substrate addition and measured immediately by FRET assay
Sortase A [11] = molecular target: T1, Sortase A; assay: Inhibition of recombinant Staphylococcus aureus SrtA using DabcylQALPETGEE-Edans as substrate by FRET assay
Sortase A [12] = molecular target: T1, Sortase A; assay: Binding affinity to wild type recombinant Staphylococcus aureus SrtA using Dabcyl-Gln-Ala-Leu-Pro-Glu-Thr-Gly-Glu-Glu-Edans as substrate by FRET assay
[13] = molecular target: T2, Sortase A (Staphylococcus aureus); assay: Binding affinity to wild type recombinant Staphylococcus aureus SrtA using Dabcyl-Gln-Ala-Leu-Pro-Glu-Thr-Gly-Glu-Glu-Edans as substrate assessed as first order rate constant of inactivation by FRET assay
[14] = molecular target: T2, Sortase A (Staphylococcus aureus); assay: Binding affinity to wild type recombinant Staphylococcus aureus SrtA using Dabcyl-Gln-Ala-Leu-Pro-Glu-Thr-Gly-Glu-Glu-Edans as substrate assessed as second order rate constant of inhibition, kinact/Ki by FRET assay
Sortase A [15] = molecular target: T1, Sortase A; assay: Inhibition of Staphylococcus aureus SrtA using EDANS-Dabcyl as substrate by FRET assay
Sortase A [16] = molecular target: T1, Sortase A; assay: Inhibition of Staphylococcus aureus SrtA (60 to 206 residues) using Abz-LPETG-Dap(Dnp)-NH2 as substrate incubated for 1 hr by FRET assay
Sortase A [17] = molecular target: T1, Sortase A; assay: Inhibition of Staphylococcus aureus USA 300 SrtA expressed in Escherichia coli BL21 (DE3) cells using Dabcyl-QALPETGEE-Edans as substrate incubated for 1 hr by FRET assay

SMILES: COc1cc2c(cc1O)OC(c1ccccc1)CC2=O (stereo not given)
MIC (Staphylococcus aureus [1]): > 4700 µM
IC50 (Sortase A [2]): 96.1 µM

SMILES: Cc1cc(C(=O)/C(=N/Nc2c(F)cccc2F)C(=O)O)no1
IC50 (Staphylococcus aureus [3]): 29 µM
IC50 (Sortase A [4]): 76.5 µM
MIC (Staphylococcus aureus [5]): > 200 µM

Ratio [6]: 7.13 10^4/M/min
SMILES: CCSSc1ccccc1C(=O)NCC(=O)NCC1CCCCC1

SMILES: O=C(O)/C=C/c1ccc(O)c(O)c1 [CAFFEIC ACID]
MIC (Staphylococcus aureus [5]): > 5750 µM
IC50 (Sortase A [7]): 860 µM

SMILES: CCn1nc(C)cc1C(=O)/C(=N/Nc1ccc(Cl)c(Cl)c1)C(=O)O
IC50 (Sortase A [4]): > 200 µM

SMILES: CC(C)C[C@H](NC(=O)[C@H](C)NC(=O)[C@@H](N)Cc1ccc(O)cc1)C(=O)N1CCC[C@H]1C(=O)N[C@@H](CCC(=O)O)C(=O)N[C@H](C)P(=O)(O)CCC(=O)N[C@@H](CCC(=O)O)C(=O)N[C@@H](CCC(=O)O)C(N)=O (H-YALPE[X1]EE-NH2)
IC50 (Sortase A [8]): 10000 µM

Ratio [6]: 5.93 10^4/M/min
MIC (Staphylococcus aureus [9]): 16 µM (≈ 6.25 µg/mL)
SMILES: CSSc1ccccc1C(=O)NCC(=O)NC12CC3CC(CC(C3)C1)C2

Ratio [6]: 1.7 10^3/M/min
MIC (Staphylococcus aureus [5]): > 1300 µM
SMILES: O=c1cc(CO)oc(C(Nc2ccccn2)c2ccc(C(F)(F)F)cc2)c1O (stereo not given)

SMILES: CC(=O)/C(=N/Nc1ccc([N+](=O)[O-])cc1)C(=O)O
IC50 (Sortase A [4]): 57 µM
MIC (Staphylococcus aureus [5]): > 270 µM

SMILES: O=c1c(O)c(-c2cc(O)c(O)c(O)c2)oc2cc(O)cc(O)c12 [MYRICETIN]
IC50 (Sortase A [2]): 44 µM

SMILES: CCOc1c(SSc2cnn(-c3cccc(OC)c3)c(=O)c2OCC)cnn(-c2cccc(OC)c2)c1=O
IC50 (Sortase A [10]): 0.62 µM

SMILES: O=c1c(OCCCO)c(SSc2cnn(-c3ccccc3)c(=O)c2OCCCO)cnn1-c1ccccc1
IC50 (Sortase A [10]): 0.84 µM

SMILES: COc1ccc2c(c1OC)C(=O)O[C@@H]2[C@H]1c2cc3c(cc2CCN1C)OCO3 [HYDRASTINE]
IC50 (Sortase A [11]): > 209 µM

SMILES: CC(C)C[C@H](NC(=O)OCc1ccccc1)C(=O)N1CCC[C@H]1C(=O)N[C@@H](C)C(=O)N[C@H](C(=O)CCl)[C@@H](C)O (Cbz-LPAT-CH2Cl)
Ki (Sortase A [12]): 0.2 µM
Kinact [13]: 1.1 10^-2/min
Ratio [14]: 5.3 10^4/M/min
kinact/Ki [14]: 883 M⁻¹ s⁻¹

SMILES: C[C@@H]1O[C@@H](OC2=C(c3ccc(O)c(O)c3)Oc3cc(O)cc(O)c3[C@@H]2O)[C@H](O)[C@H](O)[C@H]1O
IC50 (Sortase A [15]): 71.8 µM

SMILES: COc1ccc(-c2cc(=O)c3c(O)cc(O)cc3o2)cc1 [ACACETIN]
MIC (Staphylococcus aureus [5]): > 3600 µM
IC50 (Sortase A [7]): 128 µM

SMILES: CCOc1c(SSc2cnn(-c3cccc(C(=N)N)c3)c(=O)c2OCC)cnn(-c2cccc(C(=N)N)c2)c1=O
Ratio [6]: 3.6 10^4/M/min
IC50 (Sortase A [10]): 0.54 µM

SMILES: CC(=O)/C(=N/Nc1ccc(Cl)c(Cl)c1)C(=O)O
IC50 (Sortase A [4]): 50 µM
MIC (Staphylococcus aureus [5]): > 270 µM

SMILES: COc1ccc2cc3[n+](cc2c1OC)CCc1cc2c(cc1-3)OCO2 [BERBERINE SULFATE]
IC50 (Sortase A [11]): 26.5 µM

SMILES: O=[N+]([O-])c1ccc(C2Nc3cccc4cccc(c34)N2)cc1
IC50 (Sortase A [16]): 80 µM

Ratio [6]: 0.7 10^3/M/min
MIC (Staphylococcus aureus [5]): > 1550 µM
SMILES: O=c1cc(CO)oc(C(Nc2ccccn2)c2ccsc2)c1O (stereo not given)

IC50 (Sortase A [17]): 24.2 µM
SMILES: CCCC(=O)c1c(O)c(CC2=C(O)C(C)(C)C(=O)C(C(C)=O)=C2O)c(O)c(Cc2c(O)c(C(=O)CCC)c(O)c(C(C)C3=C(O)C(C)(C)C(=O)C(C(C)=O)=C3O)c2O)c1O (stereo not given)

Ratio [6]: 6.14 10^4/M/min
SMILES: CCSSc1ccccc1C(=O)NCC(=O)Nc1ccc(F)cc1

SMILES: O=c1c(OCCO)c(SSc2cnn(-c3cccc(F)c3)c(=O)c2OCCO)cnn1-c1cccc(F)c1
IC50 (Sortase A [10]): 0.41 µM

Ratio [6]: 5.79 10^4/M/min
MIC (Staphylococcus aureus [9]): 7.74 µM (≈ 3.13 µg/mL)
SMILES: CCSSc1ccccc1C(=O)NCC(=O)NC12CC3CC(CC(C3)C1)C2

SMILES: O=C1N[C@H](c2c[nH]c3cc(Br)ccc23)CN=C1c1c[nH]c2ccccc12
IC50 (Sortase A [15]): 83.2 µM

SMILES: CCOc1c(S)cnn(-c2ccccc2)c1=O
IC50 (Sortase A [10]): 35 µM

SMILES: COc1c(O)c2c(c3c1O[C@@]1(O)C(C)(C)[C@H](C)O[C@@]31O)C(=O)C(C)=CC2=O
IC50 (Sortase A [7]): 23.6 µM

SMILES: O=C(/C=C/c1ccc(O)c(O)c1)O[C@@H]1C[C@](O)(C(=O)O)C[C@@H](O)[C@H]1O [CHLOROGENIC ACID]
IC50 (Sortase A [15]): 95.6 µM
MIC (Staphylococcus aureus [5]): 2900 µM (≈ 1030 µg/mL)

Reference: ChEMBL document CHEMBL5226340, “Chemical Biology of Sortase A Inhibition: A Gateway to Anti-infective Therapeutic Agents” (J Med Chem, 2021)
